Test system: human bone marrow-derived mesenchymal stem cells
Assay: Differentiation induction of human bone marrow-derived mesenchymal stem cells into adipocytes (oil red O staining, adiponectin ELISA, real-time PCR)
Assay type: cell-based
Details: for necessity of the component for inducing differentiation into adipocytes: component left out of the serum-free differentiation culture medium, 21 days, FIG. 4
Protocol: A serum-free control culture medium (Comparative Example 1) was produced by adding 5 μM of LPA, 1 mM of vitamin C, 100 μM of biotin, and 41.5 nM of progesterone to Dulbecco's modified Eagle's medium (DMEM) containing HEPES (concentration of 25 mM).
To HEPES-containing DMEM, at the final concentrations, 500 μM of isobutylmethylxanthine (IBMX), 1 μM of dexamethasone, 1 μM of insulin, and 1 μM of rosiglitazone were added to produce an adipocyte differentiation inducing culture medium.
To the above adipocyte differentiation inducing culture medium, 5 μM of LPA, 1 mM of vitamin C, 100 μM of biotin, and 41.5 nM of progesterone were added to produce a serum-free differentiation inducing culture medium according to the present invention (hereinafter referred to as serum-free differentiation culture medium: Example 1).
To each of HEPES-containing DMEM and the adipocyte differentiation inducing culture medium, 10% of fetal bovine serum (FBS) was added to produce a conventional culture medium (Comparative Example 2) and a conventional differentiation culture medium (Comparative Example 3).
Human bone marrow-derived mesenchymal stem cells (strain name: normal human mesenchymal stem cells (Cryo hMSC purchased from LONZA) were seeded in a culture container with a 48-hole culture plate at a cell density of 30,000 cells/cm^2. These culture media were replaced with respective fresh ones every three to four days to culture the cells at 37 degrees C. and 5% CO2 for 7 to 21 days, thereby inducing differentiation into adipocytes.
The adipocytes were confirmed by oil red 0 staining of lipid droplets accumulated in the cells. Additionally, the oil red O-stained cells were extracted with isopropanol to measure the quantity of lipid accumulated in the cells using an absorption spectrophotometer (wavelength of 492 nm). Then, the quantities of adiponectin secreted from the cells in the three days: Day 4 to Day 7, Day 11 to Day 14, and Day 18 to Day 21 of differentiation induction were confirmed using an adiponectin ELISA kit (Fujirebio Inc). Furthermore, the mRNA expressions of PPAR-gamma and adiponectin were confirmed by real-time PCR. The forward and reverse primers for PPRA-gamma used were […] (SEQ ID NO:1) and tcgcctttgctttggtcag (SEQ ID NO:2), respectively; the forward and reverse primers for adiponectin used were […] (SEQ ID NO:3) and […] (SEQ ID NO:4), respectively; and the forward and reverse primers for GAPDH used were […] (SEQ ID NO:5) and […] (SEQ ID NO:6), respectively.
As in Example 1, at the final concentrations, 500 μM of IBMX, 1 μM of dexamethasone, 1 μM of insulin, and 1 μM of rosiglitazone were added to HEPES-containing DMEM to produce an adipocyte differentiation inducing culture medium. To the adipocyte differentiation inducing basal medium, 5 μM of LPA, 1 mM of vitamin C, […], and 41.5 nM of progesterone were added to produce a serum-free differentiation culture medium according to the present invention (Example 2). On the other hand, for comparison, there were also prepared a culture medium without LPA alone (Comparative Example 4), a culture medium without vitamin C alone (Comparative Example 5), a culture medium without biotin alone (Comparative Example 6), and a culture medium without progesterone alone (Comparative Example 7).
To DMEM not containing HEPES, at the final concentrations, 500 μM of IBMX, 1 μM of dexamethasone, 1 μM of insulin, and 1 μM of rosiglitazone were added to produce an adipocyte differentiation inducing culture medium 2. To the adipocyte differentiation inducing basal medium 2, 5 μM of LPA, 1 mM of vitamin C, 100 μM of biotin, and 41.5 nM of progesterone were added to produce a serum-free differentiation culture medium 2 (Comparative Example 8).
As in Example 1, human bone marrow-derived mesenchymal stem cells were seeded in the wells of a 48-hole culture plate at the cell density of 30,000 cells/cm^2. […]

Compound	necessity of the component for inducing differentiation into adipocytes	effect on the quantity of lipid droplets in adipocytes when added to the culture medium
1-oleoyl lysophosphatidic acid sodium [LPA]	necessary	–
O=S(=O)(O)CCN1CCN(CCO)CC1 [HEPES, 2-[4-(2-hydroxyethyl)-1-piperazinyl]ethanesulfonic acid]	necessary	–
O=C(O)CCCC[C@@H]1SC[C@@H]2NC(=O)N[C@@H]21 [biotin]	necessary	–
CC(=O)[C@H]1CC[C@H]2[C@@H]3CCC4=CC(=O)CC[C@]4(C)[C@H]3CC[C@]12C [progesterone]	not essential	increasing the quantity of lipid droplets in adipocytes
O=C1O[C@H]([C@@H](O)CO)C(O)=C1O [vitamin C]	necessary	–
